# Legend:
# [1] = tested on: (2S,3S)-2,3-butanediol dehydrogenase; experiment: Dehydrogenase (oxidative) activity of the purified enzyme on various substrates, NAD+ as coenzyme; type: biochemical, Zoogloea ramigera; conditions: oxidation; substrate 50 mM, standard reaction condition; activity on (2S,3S)-2,3-butanediol taken as 100
# Protocol: (§1) React a reaction solution containing 50 mM glycine-sodium hydroxide buffer (pH 11.0), 2.5 mM NAD^+, 50 mM (2S,3S)-2,3-butanediol and the enzyme at 30° C. Then, measure the increase of absorbance at 340 nm relative to the increase of NADH. 1 U is defined as the amount of enzyme that catalyzes a 1-μmol increase of NADH in 1 minute.
# The dehydrogenase activity of the enzyme obtained in Example 1 was measured against various substrates (50 mM) under the standard reaction condition.
# [2] = target: acetoin reductase (Klebsiella pneumoniae, UniProt Q48436); conditions: J. Ferment. Technol. 83, 32-37 (1997); cited from earlier work
# Sequence of acetoin reductase (Q48436 whole entry): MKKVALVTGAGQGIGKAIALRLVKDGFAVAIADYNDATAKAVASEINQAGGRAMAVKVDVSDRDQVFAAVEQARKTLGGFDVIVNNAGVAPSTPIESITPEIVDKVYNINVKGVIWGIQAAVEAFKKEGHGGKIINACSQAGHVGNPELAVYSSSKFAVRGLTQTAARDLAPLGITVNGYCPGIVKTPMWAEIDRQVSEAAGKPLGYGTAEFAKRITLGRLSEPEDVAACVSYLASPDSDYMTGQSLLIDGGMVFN
# [3] = tested on: (2S,3S)-2,3-butanediol dehydrogenase; experiment: Reductive activity of the purified enzyme on various substrates, NADH as coenzyme; type: biochemical, Zoogloea ramigera; conditions: reduction; substrate 50 mM, standard reaction condition; activity on 2,3-butanedione taken as 100
# Protocol: React a reaction solution containing 50 mM potassium phosphate buffer (pH 5.5), 0.2 mM NADH, 20 mM 2,3-butanedione and the enzyme at 30° C. Then, measure the decrease of absorbance at 340 nm relative to the decrease of NADH. 1 U is defined as the amount of enzyme that catalyzes a 1-μmol decrease of NADH in 1 minute. The protein can be quantified by a dye binding method using BioRad protein assay kit.
# The reductive activity of the enzyme obtained in Example 1 was measured on various substrates (50 mM) under the standard reaction condition.
# [4] = tested on: (2S,3S)-2,3-butanediol dehydrogenase; experiment: Activation of (2S,3S)-2,3-butanediol dehydrogenase activity by divalent ions; type: biochemical, Zoogloea ramigera; conditions: divalent ion 1 mM; activity in the absence of the ions taken as 100
# Protocol: as §1
# The activation effect by a divalent ion can be measured as described above by adding 1 mM of a metal ion into the above-mentioned reaction solution.
# [5] = (2S,3S)-2,3-butanediol oxidation activity of enzyme preparations from Zoogloea ramigera; type: biochemical; conditions: fraction after each purification step
# Protocol: as §1
# Zoogloea ramigera strain DSM287 was cultured at 28° C. for 54 hours in 1.2 L of YPD medium that uses glycerol as a carbon source, and wet bacterial cells were prepared by centrifugation. Approximately 30 g of the obtained wet bacterial cells were suspended in a 50 mL solution of 50 mM potassium phosphate buffer (pH8.0) and 1 mM 2-mercaptoethanol. The cells were then disrupted using Multi-beads shocker (Yasui Kikai), and bacterial cell debris was removed by centrifugation to obtain cell-free extract. Protamine sulfate was added to this cell-free extract and nucleic acids were removed by centrifugation to yield the supernatant. Ammonium sulfate was added to this supernatant up to 30% saturation, and this was applied onto phenyl-sepharose column (2.6 cm×10 cm) equilibrated with standard buffer (10 mM Tris-HCl buffer (pH8.0) and 0.01% 2-mercaptoethanol) comprising 30% ammonium sulfate. After washing the column with the same buffer, gradient elution was performed with 30% to 0% saturated ammonium sulfate. […]
# [6] = target: L-2,3-butanediol dehydrogenase (Corynebacterium glutamicum, UniProt Q9ZNN8); conditions: Biosci. Biotechnol. Biochem. 65, 1876-1878 (2001); cited from earlier work
# Sequence of L-2,3-butanediol dehydrogenase (Q9ZNN8 whole entry): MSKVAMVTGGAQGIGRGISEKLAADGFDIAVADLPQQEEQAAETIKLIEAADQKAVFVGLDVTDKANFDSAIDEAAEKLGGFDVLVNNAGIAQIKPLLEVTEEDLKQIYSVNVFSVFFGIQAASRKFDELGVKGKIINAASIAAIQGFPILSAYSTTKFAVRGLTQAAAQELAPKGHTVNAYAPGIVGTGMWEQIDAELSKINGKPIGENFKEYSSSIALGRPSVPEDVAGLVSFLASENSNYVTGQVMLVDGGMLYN
Compound,Relative activity (%) [1] [%],Relative activity (%) [4] [%],other results
"CC(O)C(C)O (stereo not drawn) [meso-2,3-butanediol]",0,,action of the enzyme on the substrate [2]: specifically act
"C[C@@H](O)CO [(R)-1,2-propanediol]",0.90,,
"CC(=O)C(C)=O [2,3-Butanedione]",,,Relative activity (%) [3]: 100%
CC(=O)C(C)O (stereo not drawn) [Acetoin],0.26,,Relative activity (%) [3]: 58.9%
[Ba+2] [Ba^2+],,112,
[Zn+2] [Zn^2+],,109,
[Ni+2] [Ni^2+],,104,
[Ca+2] [Ca^2+],,113,
"OC[C@@H](O)CCl [(R)-3-chloro-1,2-propanediol]",3.62,,
[Co+2] [Co^2+],,106,
(R)-2-butanol,1.11,,
"C[C@H](O)[C@H](C)O [(2S,3S)-2,3-butanediol]",100,,action of the enzyme on the substrate [2]: doesnot act
(S)-2-butanol,43.3,,
[Mn+2] [Mn^2+],,104,
"C[C@@H](O)[C@@H](C)O [(2R,3R)-2,3-butanediol]",2.89,,
"OC[C@H](O)CCl [(S)-3-chloro-1,2-propanediol]",0,,
Hydroxyapatite,,,Specific activity (U/mg) [5]: 60.9 U/mg
[Cu+2] [Cu^2+],,107,
CCC(C)O (stereo not drawn) [2-butanol],,,activity of the enzyme towards the substrate [6]: lacks activity
[Mg+2] [Mg^2+],,110,
"C[C@H](O)CO [(S)-1,2-propanediol]",55.3,,
